This is an account of results in patent publication US20070238745A1, “PI3K-Akt Pathway Inhibitors” (UNIVERSITY OF SOUTH FLORIDA, priority 2006, published 2007).

“Also recorded” adds a separate entry of the source. Like-named read-outs stand apart in the source and are kept apart here.

Data set [1] concerns PC3 cells. Briefly: Apoptosis of PC3 cells (DNA fragmentation Cell Death ELISA, Tunel). The conditions noted are these: 20 mM LY, 20 mM API-2, 50 mM roscovitine or combination for 14 hr (ELISA); 40 hrs (Tunel). Type of data set: cell-based, human. On the procedure:
Tunel positive cells are shown. […] Cells were incubated with Hoechest stain for 5 mins and examined using a fluorescent microscope. […] Amounts of cytosolic histone associated DNA fragments were measured.
(§1) Prostate cancer cell lines used in our studies include LNCaP, LNCaP-Rf, PC3 and PC3-MM2. […] LNCaP cells and PC3 cells were derived from a lymph node metastasis and a bone metastasis, respectively, of human prostate tumors. All these cell lines express constitutively active AKT. To distinguish the effects of our therapeutics between normal and tumor cells, we also used an immortalized but non-tumorigenic prostate epithelial cell line, RWPE, in our study. All experiments were performed on growing cells in medium containing 10% fetal calf serum.

The conditions of data set [2]: cited from earlier work.
For a further data set, the system named is LNCaP, LAPC4 and LAPC9. To be noted: most prostate cancer cell lines, including LNCaP; cited from earlier work.
Data set [3] deals with LNCaP cells. Kind of data set: PARP cleavage by Western blotting in LNCaP cells. Type of data set: cell-based, human. On the procedure: Cell lysates were analysed for PARP cleavage by Western blotting. […] Lysates were analysed by Western blotting. […] Lysates were analysed by Western blotting. In FIG. 1D LNCaP cells were transfected with pcDNA3 (vector) or pcDNA3 encoding dn-AKT plasmid. […] Lysates were analysed by Western blotting.
as §1
Apoptosis was monitored by cleavage of the caspase-3 substrate poly (ADP-ribose) polymerase (PARP).

The test system of data set [4] is Bim. Kind of data set: Amounts of Bim in LNCaP and PC3 cells. Type of data set: cell-based, human. From the text:
How AKT inhibitors facilitate the mitochondria-dependent apoptosis of prostate cancer cells remains to be determined. Potential mechanisms include accumulation of the BH3-only protein Bim and dephosphorylation and activation of Bad. The FOXO factors activate the Bim promoter, and AKT phosphorylates Bim, which may prevent its degradation.

For the next data set, the system named is PC3-MM2 cells. Briefly: Cell growth by trypan-blue exclusion, PC3-MM2. Type of data set: cell-based, human. The conditions noted are these: 72 hr. On the procedure:
(§2) FIG. 3 is a series of graphs illustrating the effects of drugs on growth potential of prostate cancer cells. Cells were treated with various inhibitors for 72 hrs and cell growth was enumerated by trypan-blue exclusion.
as §1
(§3) Further, effects of the combination treatment in altering colony formation potential were examined. For this purpose, cells were exposed to drugs for 24 or 46 hrs and trypsinized. Ten thousand viable cells were replated and allowed to grow colonies for 2 weeks.

Data set [5] has as its system PC3 cells. Briefly: Cell growth by trypan-blue exclusion, PC3. Type of data set: cell-based, human. The conditions noted are these: 72 hr. On the procedure: as §2, §1, §3
Data set [6] deals with Bim. The conditions noted are these: PC3 cells, 8 hrs; roscovitine in either the presence or absence of API-2. On the procedure:
(§4) Lysates were analysed by Western blotting. […] Lysates were analysed by Western blotting.

The test system of data set [7] is XIAP. The conditions noted are these: PC3 cells, longer exposure (20 hrs), single agent. On the procedure:
as §4

A further data set has as its system p53. The conditions noted are these: LNCaP and LNCaP-Rf cells; cited from earlier work.
Another data set deals with Cdk7/Cdk9. Briefly: Western blotting: phosphorylation of RNA-Pol II in PC3 cells. The conditions noted are these: short-term exposure (8 hrs).
For data set [8] the following is noted: orally, 3 times a day at 200 mg/kg or 2 times a day at 500 mg/kg; cited from earlier work.
The test system of the next data set is PC3 and DU145 cells. The conditions noted are these: cited from earlier work.
For data set [9] the following is noted: cited from earlier work. This is another data set of the same source.
Data set [10] deals with melanoma cells expressing wild-type p53 (A375, 888-Mel, 624-Mel). The conditions noted are these: melanoma cells A375, 888-Mel, 624-Mel (wild-type p53); cited from earlier work.
In data set [11] the test system is HTLV-I transformed T cell lines (MT-2). The conditions noted are these: cited from earlier work.
The next data set relates to LNCaP, LNCaP-Rf. The conditions noted are these: LNCaP-Rf prostate cancer cells, roscovitine alone; cited from earlier work.
Another data set deals with Bcl-2. Kind of data set: Western blotting: Bcl-2 expression in PC3 cells. To be noted: longer exposure (20 hrs). For orientation: Immunoblotting shows a protein as a band on a membrane.
Data set [12] has as its system XIAP. To be noted: LNCaP, LNCaP-Rf, and PC3 cells; cited from earlier work.
For data set [13], the system named is LNCaP cells. To be noted: cited from earlier work.
Data set [14] concerns malignant tumors refractory to conventional treatments. The conditions noted are these: patients with malignant tumors refractory to conventional treatments; cited from earlier work.
In data set [15] the test system is lung, breast, and B cell cancer. To be noted: cited from earlier work.
In a further data set the test system is 151 kinases. The conditions noted are these: cited from earlier work.

Procedure for Bcl-2: (§5) Lysates were analysed by Western blotting. […] Cells were exposed to drugs for 20 hrs. Lysates were analysed by Western blotting.
Procedure for Cdk7/Cdk9: as §5

With `O=c1cc(N2CCOCC2)oc2c(-c3ccccc3)cccc12` [LY, 2-(4-morpholinyl)-8-phenyl-4H-1-benzopyran-4-one], the “apoptosis of PC3 cells” value in the data set with PC3 cells [1] is “not”. In addition, the in vivo half-life result in data set [2] is “short in vivo half-life”. Also, in the data set on LNCaP, LAPC4 and LAPC9, the apoptotic response entry is listed as “induce a potent apoptotic response”. For the same compound, in the data set with LNCaP cells [3] (LNCaP cells, 8 hours, cleavage of caspase-3 substrate PARP, 10 uM LY294002 or 0.5 uM Wortmannin), the PARP cleavage result is listed as “did not induce any PARP cleavage”. In the data set with Bim [4], the “amounts of Bim” value is “increase amounts of Bim”. In addition, the cell growth entry in the data set on PC3-MM2 cells and with PC3 cells [5] was “inhibit cell growth” throughout.
With `CCC(CO)Nc1nc(NCc2ccccc2)c2ncn(C(C)C)c2n1` (stereo not shown) [roscovitine, 2-(1-ethyl-2-hydroxyethylamino)-6-benzylamino-9-isopropylpurine], the “apoptosis of PC3 cells” value in the data set on PC3 cells [1] was “not”. Also, the Bim abundance result with Bim [6] is given as “did not alter Bim abundance”. Besides, the “XIAP expression / abundance” value with XIAP [7] was “reduced expression of XIAP”. For the same compound, the p53 abundance result with p53 is “increases p53 abundance”. For the same compound, in the data set on Cdk7/Cdk9, the “activity of Cdk7/Cdk9 as measured by phosphorylation of RNA-Pol II” value is “reduced activity”. In [8], the “toxicity or adverse effects” value is “without any toxicity or adverse effects”. The “apoptosis when supplied with roscovitine and wild-type p53” value in the data set with PC3 and DU145 cells (DU145 and PC3 cells) was “efficiently apoptose”. In addition, the apoptosis entry in the data set with PC3 and DU145 cells is “relatively resistant and not”; in data set [10] it was “apoptose; also recorded: readily induces apoptosis”; in data set [11], “readily induces apoptosis”; with LNCaP, LNCaP-Rf, “can induce apoptosis; also recorded: readily induces apoptosis”. Further, the PARP cleavage result with LNCaP cells [3] was “did not induce any PARP cleavage”. Further, the “PARP cleavage in the presence as compared with the absence of dominant-negative AKT” value in the data set with LNCaP cells [3] is listed as “enhanced PARP cleavage”. For the same compound, the “exposure time at which robust PARP cleavage was evident” value in the data set on LNCaP cells [3] is on record as “more than 9 hr”. The “tissue distribution / tumor uptake” value in data set [9] (in vivo) is on record as “highest tumor uptake”. Moreover, the clearance from plasma entry in data set [9] (via oxidative metabolism of the side chain hydroxyl group, excreted in urine) is “clears slowly”. In addition, the cell growth result in the data set with PC3-MM2 cells and in the data set with PC3 cells [5] was “inhibit cell growth” each time. Moreover, the Bcl-2 expression entry with Bcl-2 is “not”. Besides, in the data set on XIAP [12], the XIAP expression result is recorded as “reduces XIAP expression”.
Take `Cc1ccc(C(=O)Cn2c3c(sc2=N)CCCC3)cc1` [pifithrin-α]: in the data set with LNCaP cells [13], the “rescue from roscovitine-induced apoptosis” value is reported as “rescues LNCaP cells”.
As to `COC[C@H]1OC(=O)c2coc3c2[C@@]1(C)C1=C(C3=O)[C@@H]2CCC(=O)[C@@]2(C)C[C@H]1OC(C)=O` [wortmannin], the in vivo half-life entry in [2] is reported as “short in vivo half-life”.
As for `CC[C@H](CO)Nc1nc(NCc2ccccc2)c2ncn(C(C)C)c2n1` [R-roscovitine, 2-(1-R-hydroxymethylpropylamino)-6-benzylamino-9-iso-propylpurine], in data set [14], the “toxicity, Phase I trial” value is “toxicity at higher doses” and the “tumor responses, Phase I trial” value is listed as “no objective tumor responses”. Moreover, in [15], the “responses, Phase II clinical trials” value is listed as “partial responses lasting more than four months” and the “toxicity, Phase II clinical trials” value is “limited toxicity”. Further, in the data set with 151 kinases, the “binding among 151 kinases examined” value is “bound only its known CDK targets and pyridoxal kinase”.
